“And” between values parts separate entries of the source, which are not always exact repeats. Equal entries are not always repeated. The source made the active and inactive calls. Rule for the calls: active = viability on the fitted dose curve at most 10% of control; inactive = the rest.
System: NCI-H196 SCLC complex tumor spheroid viability
Test: Anticancer human tumor NCI-H196 cell line growth inhibition;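 for IC50: spheroids exposed to compounds for 7 days before readout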;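 for viability, T/C: spheroids exposed to compounds for 7 days before readout; 100% = DMSO vehicle control wells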
Details: for viability, T/C: stronger effect = lower value
From the text: Multicellular complex tumor spheroid response to DNA repair inhibitors in combination with DNA-damaging drugs
This study explores the anticancer activities of DNA-damaging drugs and inhibitors of DNA damage repair, both as single agents and in combinations. Complex tumor spheroids comprised of malignant cells, endothelial cells and mesenchymal stem cells served as an in vitro model for human solid tumors. This model system incorporates physiologically relevant features and patient-derived or established malignant cell lines with clinically relevant genetic alterations from many tumor types. Twenty-six patient-derived or established malignant cell lines were evaluated representing sarcoma, melanoma, small cell lung cancer (SCLC), non-small cell lung cancer (NSCLC), as well as bladder, ovarian and pancreatic cancers. The concentration ranges selected for each drug and investigational agent were based upon clinically achievable concentrations if the clinical Cmax of the agent was known.
Compounds. The drugs and compounds olaparib (NSC753686), talazoparib (NSC767125), berzosertib (NSC777718), elimusertib (NSC800525), nedisertib (NSC802822), VX-984 (NSC792969), AZD-1390 (NSC803789), temozolomide (NSC362856), topotecan (NSC609699), trabectedin (NSC813783), staurosporine (NSC755774), and gemcitabine (NSC613327) were obtained from the National Cancer Institute (NCI) Developmental Therapeutics Program Chemical Repository. The FDA-approved anticancer drug set is available from the Developmental Therapeutics Program at https://dtp.cancer.gov/organization/dscb/obtaining/available_plates.htm. […] The stock solutions were prepared in dimethyl sulfoxide (DMSO, Sigma-Aldrich, St. Louis, MO, cat. D2650) at 400-fold the tested concentration and stored at -70 degrees C. Prior to their use, the stock solutions were diluted in fresh medium and the final DMSO concentration in the assay was 0.25% (v/v). All drugs and investigational agents were tested over a range starting from a high concentration at or near the clinical Cmax and decreasing in half-log increments. If the clinical Cmax for an agent had not been determined, the highest concentration tested was 10 microM.
Cell Lines. The patient-derived cancer cell (PDC) lines: 156681-154-R-J1-PDC, 283228-195-R-J1-PDC, 287954-098-R-J1-PDC, 292921-168-R-J2-PDC, 349418-098-R-PDC, 425362-245-T-J1-PDC, 556581-035-R-J1-PDC, and BL0293-F563-PDC were received from the NCI Patient-Derived Models Repository (PDMR, https://pdmr.cancer.gov). The established cell lines HS-SY-2 (RRID:CVCL_8719), MPNST, and SYO-1 (RRID:CVCL_7146) were obtained from the Sloan Kettering Institute. The alveolar soft parts sarcoma cell line ASPS-1 (RRID:CVCL_S738) was established at the NCI and grown from internal seed stocks. The following established cell lines were purchased from the American Type Culture Collection (ATCC, Manassas, VA): G-401 (ATCC, cat. CRL-1441, RRID:CVCL_0270), SW982 (ATCC, cat. HTB-93, RRID:CVCL_1734), VA-ES-BJ (ATCC, cat. CRL-2138, RRID:CVCL_1785), NCI-H719 (ATCC, cat. CRL-5837, RRID:CVCL_1582), NCI-H196 (ATCC, cat. CRL-5823, RRID:CVCL_1509), NCI-H841 (ATCC, cat. CRL-5845, RRID:CVCL_1595), NCI-H1618 (ATCC, cat. CRL-5879, RRID:CVCL_1480), NCI-H1876 (ATCC, cat. CRL-5902, RRID:CVCL_1503), DMS 114 (ATCC, cat. CRL-2066; RRID:CVCL_1174), NCI-H211 (ATCC, cat. CRL-5824; RRID:CVCL_1529), and SW 1271 (ATCC, cat. CRL-2177, RRID:CVCL_1716). The small cell lung cancer cell line COR-L88 was purchased from Sigma-Aldrich (cat. 92031917-1VL, RRID:CVCL_1141). The non-small cell lung cancer cell lines NCI-H226 (RRID:CVCL_1544) and NCI-H322M (RRID:CVCL_1557) were established at the NCI and grown from internal seed stocks. Pooled donor human umbilical vein endothelial cells (HUVEC, Lonza, cat. CC-2519) and human mesenchymal stem cells (hMSC, Lonza, cat. PT-2501) were purchased from Lonza (Walkersville, MD).
Cell Culture. All cells were maintained in an incubator at 37 degrees C and 5% CO2 with 95% humidity. […]

[1] = compound alone, run of 11/07/2019
[2] = compound alone, run of 12/16/2019

Structure (SMILES) | viability, T/C (compound 0.0316 µM) | viability, T/C (compound 0.1 µM) | viability, T/C (compound 0.316 µM) | viability, T/C (compound 1 µM) | viability, T/C (compound 3.16 µM) | viability, T/C (compound 10 µM) | IC50 (curve of compound) | viability, T/C (compound 0.00949 µM) | viability, T/C (compound 0.03 µM) | viability, T/C (compound 0.0949 µM) | viability, T/C (compound 0.3 µM) | viability, T/C (compound 0.949 µM) | viability, T/C (compound 3 µM) | further results
CC(C)n1c(=O)n(C)c2cnc3cc(F)c(-c4ccc(OCCCN5CCCCC5)nc4)cc3c21 | 102% (2×) and 93.8% | 106% and 97.1% and 100% | 105% and 95.7% and 95.9% | 108% and 102% and 105% | 113% and 112% and 110% | 108% and 110% and 111% | > 10 µM | – | – | – | – | – | – | –
CC1COCCN1c1cc(-c2ccnn2C)c2ccnc(-c3ccn[nH]3)c2n1 (centres undefined) | 85.4% and 90.9% and 88.6% | 76.7% and 72.3% and 79.4% | 65.1% and 66% and 67.1% | 60.3% and 53.1% and 61.3% | 53% (2×) and 49.1% | 44.3% and 46.2% and 48.6% | 4.36 µM and 2.77 µM and 7.31 µM | – | – | – | – | – | – | –
CC[C@@]1(O)C(=O)OCc2c1cc1n(c2=O)Cc2cc3c(CN(C)C)c(O)ccc3nc2-1 | – | – | – | – | – | – | – | 99.5% [middle of 10 runs] | 95.5% [middle of 10 runs] | 102% [middle of 10 runs] | 105% [middle of 10 runs] | – | – | viability, T/C (compound 0.003 µM): 101% [middle of 10 runs]; IC50 [1]: > 0.3 µM; IC50 [2]: > 0.3 µM
CNCc1ccc(-c2cc(-c3nc(-c4ccc(S(=O)(=O)C(C)C)cc4)cnc3N)on2)cc1 | – | – | – | – | – | – | > 3 µM | 101% and 97.8% and 106% | 108% and 111% and 109% | 98% and 119% and 105% | 106% and 107% and 101% | 95% and 98.1% and 96.3% | 88.5% and 83.7% and 94% | –
COc1cc(C)[nH]c(=O)c1CN1CCc2c(Cl)cc(C(OC)C3COC3)c(Cl)c2C1=O (centres undefined) | 93.9% and 96.1% and 106% | 101% (2×) and 102% | 92.7% and 96% and 91.1% | 101% and 94.2% and 103% | 97.1% and 89.7% and 101% | 94.5% and 97.7% and 100% | > 10 µM | – | – | – | – | – | – | –
COc1cc2c(cc1O)CCNC21CSC2c3c(OC(C)=O)c(C)c4c(c3C(COC1=O)N1C(O)C3Cc5cc(C)c(OC)c(O)c5C(C21)N3C)OCO4 (centres undefined) | – | – | – | – | – | – | – | – | – | – | – | – | – | viability, T/C (compound 30 pM): 103% [middle of 10 runs]; viability, T/C (compound 94.9 pM): 105% [middle of 10 runs]; viability, T/C (compound 0.0003 µM): 103% [middle of 10 runs]; viability, T/C (compound 0.000949 µM): 84.7% [middle of 10 runs]; viability, T/C (compound 0.003 µM): 7.79% [middle of 10 runs]; IC50 [2]: 1.62 nM [middle of 8 runs]
COc1ccc([C@@H](O)c2cc(-c3ncnc4cc(N5CCOCC5)ccc34)c(F)cc2Cl)nn1 | 96.5% and 98.3% and 102% | 101% and 94.9% and 98.9% | 89.8% and 87.1% and 95.5% | 78.1% and 80.4% | 65% and 69% and 75.8% | 49.7% and 56.2% and 59.8% | > 10 µM | – | – | – | – | – | – | outcome (compound 1 µM): inactive
Cc1cc(C)c(CNC(=O)c2cc(-c3ccc(CN4CCOCC4)cc3)cc3c2cnn3C2CCCC2)c(=O)[nH]1 | 104% and 97.2% and 99.1% | 96.1% and 97.9% and 103% | 93.3% and 97% and 102% | 91.3% and 96.2% and 98.9% | 101% and 94% and 103% | 106% and 103% and 111% | > 10 µM | – | – | – | – | – | – | –
Cc1sc2c(c1C)C(c1ccc(Cl)cc1)=NC(CC(=O)Nc1ccc(O)cc1)c1nnc(C)n1-2 (centres undefined) | – | – | – | – | – | – | 0.763 µM and 0.77 µM and 0.666 µM | 102% and 106% and 98% | 101% and 108% and 93.3% | 91.3% and 94.5% and 91.4% | 85.1% and 78% and 76.3% | 41.5% and 43.1% and 38.3% | 23% and 23.8% and 20.7% | –
Cn1ncnc1[C@H]1c2n[nH]c(=O)c3cc(F)cc(c23)N[C@@H]1c1ccc(F)cc1 | – | – | – | – | – | – | > 3 µM | 108% and 104% and 101% | 102% and 96.7% and 99% | 103% and 98.2% and 102% | 102% and 98.1% and 100% | 104% and 96.5% and 89.3% | 108% and 92% and 87.2% | –
Cn1nnc2c(C(N)=O)ncn2c1=O | – | – | – | 95.3% [middle of 10 runs] | 101% [middle of 10 runs] | 104% [middle of 10 runs] | – | – | – | – | – | – | – | viability, T/C (compound 31.6 µM): 107% [middle of 10 runs]; IC50 [1]: > 100 µM
O=C(c1cc(Cc2n[nH]c(=O)c3ccccc23)ccc1F)N1CCN(C(=O)C2CC2)CC1 | – | – | – | – | – | – | > 30 µM | – | – | 99.6% and 102% and 108% | 100% and 93.2% and 96% | 90.1% and 99.8% and 99.6% | 98.9% and 93.9% and 98.2% | viability, T/C (compound 9.49 µM): 92.9% and 89.8% and 95.1%; viability, T/C (compound 30 µM): 85.1% (2×) and 69.1%
[2H]c1nc(C)nc([2H])c1-c1cc(NC[C@@H](C)c2cccc3c(C(=O)NC)ccnc23)ncn1 | 104% and 105% and 99.6% | 102% and 99.5% and 104% | 98.1% and 106% and 96.8% | 99.2% and 106% and 97.2% | 103% and 99.3% and 102% | 103% and 107% and 104% | > 10 µM | – | – | – | – | – | – | –

Source: PubChem BioAssay AID1845208 (Molecular Pharmacology Branch, DTP, NCI, 2023)
